Results on three compounds are retold here after patent publication US20220289680A1, “METHODS FOR MAKING DIMERIC NAPHTHALIMIDES AND SOLID STATE FORMS OF THE SAME” (Alucent Biomedical, Inc., priority 2018, published 2022).

As a reminder, the solubility is how much of the substance goes into solution per volume.

Type in all cases: physicochemical
The nature of data set [1]: Dynamic vapor sorption (DVS) analysis. The conditions noted are these: 25° C. The procedure:
(§1) DVS analysis was carried out using a TA Instruments Q5000 Dynamic Vapor Sorption analyzer. The instrument was calibrated with standard weights and a sodium bromide standard for humidity. Approximately 10-25 mg of sample was loaded into a metal-coated quartz pan for analysis. The sample was analyzed at 25° C. with a maximum equilibration time of one hour in 10% relative humidity (RH) steps from 5% to 95% RH (adsorption cycle) and from 95% to 5% RH (desorption cycle). The movement from one step to the next occurred either after satisfying the equilibrium criterion of 0.01% weight change or, if the equilibrium criterion was not met, after one hour. The percent weight change values were calculated using Microsoft Excel®.

A short description of data set [2]: Post-DVS X-ray powder diffraction analysis (solid form stability). The following applies: after DVS cycling 5%-95%-5% RH.
Text: (§2) The Rigaku Smart-Lab X-ray diffraction system was configured for reflection Bragg-Brentano geometry using a line source X-ray beam. The x-ray source was a Cu Long Fine Focus tube that was operated at 40 kV and 44 ma. That source provided an incident beam profile (at the sample) that changed from a narrow line at high angles to a broad rectangle at low angles. Beam conditioning slits were used on the X-ray source to ensure that the maximum beam size is less than 10 mm, both along the line and normal to the line. The Rigaku Smart-Lab was operated to give peak widths of 0.1 degrees two-theta or less. The axial divergence of the X-ray beam was controlled by 5.0-degree Soller slits in both the incident and diffracted beam paths.
(§3) Powder samples were prepared in a low-background Si holder using light manual pressure to keep the sample surfaces flat and level with the reference surface of the sample holder. Each sample was analyzed from 2 to 40 degrees two-theta using a continuous scan of 6 degrees two-theta per minute, with an effective step size of 0.02 degrees two-theta.
as §1

Data set [3] is described as follows: Solubility measurements in various solvents (visual inspection of dissolution). The following applies: thermodynamic from solid. The procedure:
The mass of a sample of Compound of Formula (I) was determined, and to that sample was added an aliquot of solvent, as shown in Table 5. Visual inspection was used to determine whether dissolution occurred. The solubility of Compound of Formula (I) in each solvent was calculated by dividing the weight of the sample by the total amount of solvent used to dissolve the sample. Table 6 lists the solubility of Compound of Formula (I) in each solvent.

The nature of data set [4]: Post-heating X-ray powder diffraction analysis (solid form stability). The conditions noted are these: heated at 80° C. for 20 minutes.
Text: as §2, §3
A sample of Form 2 was heated at 80° C. for 20 minutes. After cooling, the sample was analyzed using x-ray powder diffraction.

Where [5] appears, read: sample of Example 3 (synthesized by a method similar to Example 4, Form 1).
The mark [6] stands for this setting: slurry-derived samples of Example 2.

In the case of `NCCOCCOCCNc1ccc2c3c(cccc13)C(=O)N(CCOCCOCCN1C(=O)c3cccc4c(NCCOCCOCCN)ccc(c34)C1=O)C2=O` [Form 1, 2,2′-((ethane-1,2-diylbis(oxy))bis(ethane-2,1-diyl))bis(6-((2-(2-(2-aminoethoxy)ethoxy)ethyl)amino)-1H-benzo[de]isoquinoline-1,3(2H)-dione)], in data set [1] (setting [5]), the “DVS weight gain when cycling from 5% to 95% relative humidity” value (from here on “DVS weight gain … to 95% relative humidity”) is 16.36%, the “DVS weight loss upon drying at 5% relative humidity” value was 0.66% and the “DVS weight loss when cycling from 95% to 5% relative humidity” value (“DVS weight loss … to 5% relative humidity” for short) amounted to 15.51%. In addition, in data set [1] (setting [6]), the “DVS weight gain … to 95% relative humidity” value is on record as 13.04%, the “DVS weight loss upon drying at 5% relative humidity” value worked out at 0.6% and the “DVS weight loss … to 5% relative humidity” value was 13.12%. The “XRPD pattern after DVS cycling relative to the same sample prior to DVS analysis” value in data set [2] is listed as “unchanged”.
On to `NCCOCCOCCNc1ccc2c3c(cccc13)C(=O)N(CCOCCOCCN1C(=O)c3cccc4c(NCCOCCOCCN)ccc(c34)C1=O)C2=O` [Compound of Formula (I), 2,2′-((ethane-1,2-diylbis(oxy))bis(ethane-2,1-diyl))bis(6-((2-(2-(2-aminoethoxy)ethoxy)ethyl)amino)-1H-benzo[de]isoquinoline-1,3(2H)-dione)], for which the solubility in data set [3] (1,1,1,3,3,3-hexafluoro-2-propanol (HFIPA), organic solvent or mixture) was 18000 µg/mL; in data set [3] (1,4-dioxane, organic solvent or mixture), less than 1000 µg/mL; in data set [3] (2,2,2-trifluoroethanol (TFE), organic solvent or mixture), 18000 µg/mL; in data set [3] (2-methyl tetrahydrofuran (2-MeTHF), organic solvent or mixture) it was less than 1000 µg/mL; in data set [3] (N,N-dimethylformamide (DMF), organic solvent or mixture, N,N-dinnethylformamide (DMF)) it was less than 1000 µg/mL; in data set [3] (acetone, organic solvent or mixture) it was less than 1000 µg/mL. Besides, the solubility in data set [3] (acetone/water (95/5, v/v), organic solvent or mixture) was less than 1000 µg/mL; in data set [3] (acetonitrile/water (95/5, v/v), organic solvent or mixture), less than 1000 µg/mL; in data set [3] (dichloromethane (DCM), organic solvent or mixture) it was less than 1000 µg/mL; in data set [3] (dimethylsulfoxide (DMSO), organic solvent or mixture) it was less than 1000 µg/mL; in data set [3] (ethanol/water (95/5, v/v), organic solvent or mixture), less than 1000 µg/mL; in data set [3] (methyl ethyl ketone (MEK), organic solvent or mixture), less than 1000 µg/mL. Further, the solubility was less than 1000 µg/mL in data set [3] (organic solvent or mixture, 2-propanol (2-PrOH)); less than 1000 µg/mL in data set [3] (organic solvent or mixture, acetonitrile (CAN)); less than 1000 µg/mL in data set [3] (organic solvent or mixture, diethyl ether (Et2O)); less than 1000 µg/mL in data set [3] (organic solvent or mixture, ethanol (EtOH)); less than 1000 µg/mL in data set [3] (organic solvent or mixture, ethyl acetate (EtOAc)); less than 1000 µg/mL in data set [3] (organic solvent or mixture, methanol (MeOH)). The solubility was less than 1000 µg/mL in data set [3] (tetrahydrofuran (THF), organic solvent or mixture); less than 1000 µg/mL in data set [3] (tetrahydrofuran/water (95/5, v/v), organic solvent or mixture); less than 1000 µg/mL in data set [3] (toluene, organic solvent or mixture); less than 1000 µg/mL in data set [3] (water). In addition, the “DVS weight gain … to 95% relative humidity” value in data set [1] (setting [5]) is 16.36%. Also, in data set [1] (setting [5]), the “DVS weight loss upon drying at 5% relative humidity” value stood at 0.66%. In addition, the “DVS weight loss … to 5% relative humidity” value in data set [1] (setting [5]) was found to be 15.51%. Moreover, the “XRPD pattern after DVS cycling relative to the same sample prior to DVS analysis” value in data set [2] is on record as “unchanged”.
Consider `NCCOCCOCCNc1ccc2c3c(cccc13)C(=O)N(CCOCCOCCN1C(=O)c3cccc4c(NCCOCCOCCN)ccc(c34)C1=O)C2=O` [Form 2, 2,2′-((ethane-1,2-diylbis(oxy))bis(ethane-2,1-diyl))bis(6-((2-(2-(2-aminoethoxy)ethoxy)ethyl)amino)-1H-benzo[de]isoquinoline-1,3(2H)-dione)], for which, in data set [1] (setting [6]), the “DVS weight gain … to 95% relative humidity” value was 7.2%, the “DVS weight loss upon drying at 5% relative humidity” value was determined as 1.44% and the “DVS weight loss … to 5% relative humidity” value was found to be 14.63%. Besides, the “XRPD pattern after DVS cycling relative to the same sample prior to DVS analysis” value in data set [2] is recorded as “less crystalline”. Besides, the “XRPD pattern after heating relative to the same sample before” value in data set [4] is “less crystalline”.
